# Source: patent publication US5798375A, “Treatment of arteriosclerosis and xanthoma” (Sankyo Company, Limited, priority 1995, dated 1998)
# Assays:
# [1] = tested on: Male New Zealand white rabbits; experiment: Example 3: regression of established atherosclerotic lesions in the cholesterol-fed rabbit model; format: in vivo; conditions: for Rate of lesion area, against the control group: figure in parentheses; for Rate of lesion area: thoracic aorta, two months, mean ± standard error, control 29 ± 20
# Method: The rabbits were grouped randomly (3-9 animals per group) and the test samples were administered orally for two months, while they were fed with a normolipidaemic diet. […] The results are shown in terms of the percentage of lesion area in the thoracic aorta.
# [2] = tested on: Male Fl b hamsters; experiment: Example 4: regression of preformed atherosclerosis in hamsters (Oil Red O stained area); format: in vivo; conditions: for Stained Area ORO: aortic arch, 4 weeks, control 1.82 ± 0.44
# Method: Synergism of HMG CoA reductase inhibitors and thiazolidinedione insulin sensitizers was examined by another regression model, i.e. the regression of preformed atherosclerosis in hamsters. Male Fl b hamsters (weight about 130 g,) were given a diet containing 0.05% cholesterol for 13 weeks. They were grouped randomly (2-7 animals per group), and then the test samples were administered for 4 weeks while the hamsters were given a normolipidaemic diet. Pravastatin and fluvastatin were mixed with drinking water at the dose of 3 mg/kg and 1.5 mg/kg, respectively, while troglitazone was mixed with the diet at the dose of 30 mg/kg or 100 mg/kg.
# In the case of the combination groups, the dosage was 3 mg/kg+30 mg/kg or 3 mg/kg+100 mg/kg for the pravastatin+troglitazone group, and 1.5 mg/kg+30 mg/kg for the fluvastatin+troglitazone group.
# Namely, the aortic arch was stained with ORO to prepare en face specimens. The percentage area which was positive to the ORO stain over the whole area was measured to represent the degree of aortic lesion.
# [3] = tested on: WHHL rabbits; experiment: Example 2: incidence and degree of xanthoma of the four legs; format: in vivo, Male WHHL rabbits; parameters: Frequency of massive xanthoma: unit not given here
# Method: (§1) Each test compound was administered for eight months to the rabbits in the form of an aqueous suspension (0.5% carboxymethylcellulose added). In the control group, a 0.5% carboxymethylcellulose solution only was administered.
# The incidence and the degree of xanthoma of the four legs were measured.
# [4] = tested on: WHHL rabbits; experiment: Example 2: aortic cholesterol content; format: in vivo, Male WHHL rabbits
# Method: as §1
# The aortic cholesterol content was measured The tunica media and tunica intima at the aortic arch and at the thoracic and abdominal aorta were peeled away with tweezers and cut into pieces. The pieces were extracted with a 2:1 by volume mixture of chloroform and methanol.
# The chloroform phase was separated and evaporated to dryness and the residue was dissolved in isopropanol. The total cholesterol and the free cholesterol were measured by a conventional enzymatic method.
# Data are expressed by the mean plus or minus standard error (mg/g tissue). The values in parentheses indicate the percentage against the control. A significant difference against the control group was observed by the unpaired student t-test: […]
# [5] = tested on: WHHL rabbits; experiment: Example 2: average thickening of intima in aorta; format: in vivo, Male WHHL rabbits; parameters: Average thickening of intima, Aortic Arch, percentage against the control group / Average thickening of intima, Total Aorta, percentage against the control group: concentration or dose not given beside the values
# Method: as §1
# The values actually measured are represented as the mean value plus or minus a standard error (μm). The numbers in parentheses represent the percentage intimal thickening against the control group. A significant difference was observed between Groups D and F at the aortic arch, and between Groups C and E and between Groups D and F over the total aorta (p<0.05) under the Mann-Whitney's U-Test.
# The average thickening of the intima is calculated by the cross-sectional area of the aortic tunica intima one section from the arch and two sections from the thoracic and abdominal portions, divided by the length of the tunica media.
# [6] = Example 2: serum cholesterol in WHHL rabbits; format: in vivo, Male WHHL rabbits; conditions: Groups C and D (pioglitazone 20 mg/kg; Compound A 10 mg/kg)
# Method: as §1
# [7] = tested on: WHHL rabbits; experiment: Example 2: percentage area covered by lesions, aortic arch and whole aorta; format: in vivo, Male WHHL rabbits; parameters: Lesion Area, Aortic Arch, percentage against the control group / Lesion Area, Total Aorta, percentage against the control group: concentration or dose not given beside the values; conditions: oral, eight months
# Method: as §1
# The values actually measured are represented by the mean value plus or minus standard error. The numbers in parentheses represent the percentage lesion area against the control group.
# *p<0.05, **p<0.01; significant difference against the control group under the [Mann-Whitney's U-Test A significant difference (p<0.05) was observed between Groups B and F, between Groups C and E and between Groups D and F at the aortic arch, and between Groups C and E over the total aorta.
# [8] = tested on: WHHL rabbits; experiment: Example 1: incidence of xanthoma in the digital joints of WHHL rabbits; format: in vivo
# Method: (§2) WHHL rabbits [2-3 months of age, the Watanabe heritable hyperlipidemic rabbit described in Biochimica et Biophysica Acta, 960, 294-302 (1988)] were randomly assigned to a control group (7 animals, group A), a group receiving pravastatin alone (5 animals, Group B), a group receiving troglitazone alone (7 animals, Group C), and a group receiving a combination of both active substances (6 animals, Group D). Pravastatin was administered orally by gavage at a dose of 50 mg/kg/day once-daily and troglitazone was given in the diet, containing 100 mg/kg of the substance for 32 weeks. The ingested amount was limited to a daily 120 g per rabbit. Blood was withdrawn from the animal immediately before starting the study and 4, 8, 12, 16, 20, 24, 28 and 32 weeks after starting the study and the total cholesterol levels (mg/dl) were determined for each blood sample. The levels are reported as a percentage (%) of the levels measured immediately before starting the study. The animals were sacrificed and necropsied at week 32 to examine (a) the percent lesion area (%) in the total, thoracic or abdominal portion of the aorta; (b) the stenosis (%) of the coronary arteries and (c) the incidence (%) of xanthoma in the digital joints.
# (§3) The values actually measured are represented as an average value±standard error in those Tables.
# [9] = tested on: WHHL rabbits; experiment: Example 1: percent lesion area of the aorta in WHHL rabbits; format: in vivo; conditions: week 32, mean ± standard error, pravastatin 50 mg/kg/day, troglitazone in diet containing 100 mg/kg, * p < 0.05 vs control
# Method: as §2, §3
# [10] = tested on: WHHL rabbits; experiment: Example 1: stenosis of the coronary arteries in WHHL rabbits; format: in vivo; conditions: week 32
# Method: as §2, §3
# [11] = Example 1: plasma total cholesterol in WHHL rabbits; format: in vivo; conditions: pravastatin 50 mg/kg/day oral gavage, troglitazone in diet containing 100 mg/kg
# Method: as §2
# [12] = pravastatin 3 mg/kg, fluvastatin 1.5 mg/kg, troglitazone 30 mg/kg alone, combinations
# [13] = oral, eight months, control 100 (14/14), *p < 0.05, **p < 0.01 vs control
compound,measurement,setting,value
CC(C)n1c(/C=C/C(O)CC(O)CC(=O)O)c(-c2ccc(F)cc2)c2ccccc21 (centres unmarked) [Fluvastatin],"Rate of lesion area, against the control group",[1]; 0.08 mg/kg (as printed in Table 9),93
same,"Rate of lesion area, against the control group",[1]; 1.5 mg/kg,134
same,Rate of lesion area,[1]; 0.08 mg/kg (as printed in Table 9) oral,27 ± 9%
same,Rate of lesion area,[1]; 1.5 mg/kg oral,39 ± 16%
same,"Stained Area, % of Control",[2]; 1.5 mg/kg,96%
same,Stained Area ORO,[2]; 1.5 mg/kg in drinking water,1.74 ± 0.49%
same,regression of aortic lesions,[2]; [12],no regression of aortic lesions
"CCc1ccc(CCOc2ccc(CC3SC(=O)NC3=O)cc2)nc1 (centres unmarked) [Pioglitazone, 5-{4-[2-(5-ethylpyridin-2-yl)ethoxy]benzyl}-2,4-thiazolidinedione]",Frequency of massive xanthoma,"[3]; control 57, *p < 0.05, **p < 0.01 vs control",68
same,incidence of xanthoma,[3]; forelegs and hindlegs,slightly less frequent incidence of xanthoma
same,Distribution of severity of lesion: (-) no lesions,"[3]; number of legs, control 0",2
same,Distribution of severity of lesion: (+++) severe lesion,"[3]; number of legs, control 6",8
same,Distribution of severity of lesion: (++) moderate lesion,"[3]; number of legs, control 10",11
same,Distribution of severity of lesion: (+) slight lesion,"[3]; number of legs, control 12",7
same,"Incidence of xanthoma, Forelegs",[3]; [13],100%
same,"Incidence of xanthoma, Hindlegs",[3]; [13],86%
same,"Incidence of xanthoma, Total","[3]; oral, eight months, control 100 (28/28), *p < 0.05, **p < 0.01 vs control",93%
same,"Cholesterol level of Thoracic and Abdominal Aorta, Esterified","[4]; mean ± standard error, control 5.3 ± 1.7",10.5 ± 3.8 mg/g tissue
same,"Cholesterol Content of Aortic Arch, Esterified","[4]; mean ± standard error, control 6.5 ± 1.4, *p < 0.05",6.6 ± 2.7 mg/g tissue
same,"Cholesterol level of Thoracic and Abdominal Aorta, Free","[4]; mean ± standard error, control 14.8 ± 2.3, *p < 0.05 vs control",23.4 ± 3.8 mg/g tissue
same,"Cholesterol level of Thoracic and Abdominal Aorta, Total","[4]; mean ± standard error, control 20.1 ± 2.3, *p < 0.05, **p < 0.02 vs control",33.9 ± 7.3 mg/g tissue
same,"Cholesterol Content of Aortic Arch, Free","[4]; mean ± standard error, control 20.6 ± 2.9",26.9 ± 2.3 mg/g tissue
same,"Cholesterol Content of Aortic Arch, Esterified, percentage against the control",[4]; number in parentheses,102%
same,"Cholesterol Content of Aortic Arch, Free, percentage against the control",[4]; number in parentheses,131%
same,"Cholesterol Content of Aortic Arch, Total, percentage against the control",[4]; number in parentheses,124%
same,"Cholesterol level of Thoracic and Abdominal Aorta, Esterified, percentage against the control",[4]; number in parentheses,198%
same,"Cholesterol level of Thoracic and Abdominal Aorta, Free, percentage against the control",[4]; number in parentheses,158%
same,"Cholesterol level of Thoracic and Abdominal Aorta, Total, percentage against the control",[4]; number in parentheses,169%
same,suppression of intimal thickening,[5]; combinations compared with Groups C and D,no suppression of hypertrophy
same,"Average thickening of intima, Aortic Arch, percentage against the control group",[5]; number in parentheses,103%
same,"Average thickening of intima, Total Aorta, percentage against the control group",[5]; number in parentheses,115%
same,"Average thickening of intima in aorta, Total Aorta","[5]; oral, eight months, pravastatin 50, pioglitazone 20, Compound A 10 mg/kg, mean ± standard error, control 154 ± 33",177 ± 26 μm
same,"Average thickening of intima in aorta, Aortic Arch","[5]; oral, eight months, pravastatin 50, pioglitazone 20, Compound A 10 mg/kg, mean ± standard error, control 237 ± 63",245 ± 37 μm
same,reduction of the serum cholesterol levels,[6],no reduction
same,"Lesion Area, Aortic Arch, percentage against the control group",[7]; number in parentheses,88%
same,"Lesion Area, Total Aorta, percentage against the control group",[7]; number in parentheses,108%
same,"Lesion Area, Total Aorta","[7]; pravastatin 50, pioglitazone 20, Compound A 10 mg/kg, mean ± standard error, *p<0.05, **p<0.01 vs control",54 ± 8%
same,"Lesion Area, Aortic Arch","[7]; pravastatin 50, pioglitazone 20, Compound A 10 mg/kg, mean ± standard error, control 82 ± 5, *p<0.05, **p<0.01 vs control",72 ± 10%
"Cc1c(C)c2c(c(C)c1O)CCC(C)(COc1ccc(CC3SC(=O)NC3=O)cc1)O2 (centres unmarked) [Troglitazone, 5-{4-[(6-hydroxy-2,5,7,8-tetramethyl-chroman-2-yl)methoxy]benzyl}-2,4-thiazolidinedione]","Rate of lesion area, against the control group",[1]; 10 mg/kg,79
same,Rate of lesion area,[1]; 10 mg/kg oral,23 ± 7%
same,"Stained Area, % of Control",[2]; 30 mg/kg,109%
same,"Stained Area, % of Control",[2]; 100 mg/kg,58%
same,Stained Area ORO,[2]; 30 mg/kg in diet,1.99 ± 0.40%
same,Stained Area ORO,[2]; 100 mg/kg in diet,1.05 ± 0.64%
same,regression of aortic lesions,[2]; [12],no regression of aortic lesions
same,regression of aortic lesions,"[2]; troglitazone alone, 100 mg/kg",regression was observed
same,"Incidence of xanthoma, Foreleg","[8]; week 32, control 100 (14/14)",86%
same,"Incidence of xanthoma, Hind leg","[8]; week 32, control 100 (14/14)",29%
same,"Incidence of xanthoma, Total","[8]; week 32, control 100 (28/28)",57%
same,"Lesion area, Abdominal aorta",[9]; control 29.9 ± 4.4,27.6 ± 7.0%
same,"Lesion Area, Total Aorta",[9]; control 65.7 ± 3.9,51.7 ± 7.7%
same,"Lesion area, Thoracic aorta",[9]; control 79.3 ± 5.4,57.9 ± 9.9%
same,"Coronary stenosis, RCA (right coronary artery)",[10]; control 13,7%
same,"Coronary stenosis, LAD (left anterior descending artery)",[10]; control 24,11%
same,"Coronary stenosis, LSP (left septal artery)",[10]; control 40,31%
same,"Coronary stenosis, LCX (left circumflex artery)",[10]; control 47,39%
same,"Coronary stenosis, MLC (main left coronary artery)",[10]; control 61,59%
same,"Coronary stenosis, MRC (main right coronary artery)",[10]; control 79,83%
same,"total cholesterol level, % of level before starting the study",[11]; week 4,88%
same,"total cholesterol level, % of level before starting the study",[11]; week 8,89%
same,"total cholesterol level, % of level before starting the study",[11]; week 12,78%
same,"total cholesterol level, % of level before starting the study",[11]; week 16,83%
same,"total cholesterol level, % of level before starting the study",[11]; week 20,72%
same,"total cholesterol level, % of level before starting the study",[11]; week 24,73%
same,"total cholesterol level, % of level before starting the study",[11]; week 28,77%
same,"total cholesterol level, % of level before starting the study",[11]; week 32,76%
